Experimental data taken from ChEMBL document CHEMBL5321216, “Discovery of bipyridine amide derivatives targeting pRXRα-PLK1 interaction for anticancer therapy” (Eur J Med Chem, 2023).
Active and inactive are the calls of the source. The rule behind the calls is not given here.

Tests used:
A549 [1] = experiment: Antiproliferative activity against RXRalpha knockout human A549 cells assessed as inhibition of cell growth incubated for 72 hrs by MTT assay; format: functional, cell-based; conditions: A549, 72 h
MDA-MB-231 [2] = experiment: Antitumor activity against human MDA-MB-231 cells xenografted in BALB/c nude mouse assessed as inhibition of tumor growth by measuring chromosome aberrations at 12.5 to 25 mg/kg/day, ip administered for 15 days; format: functional, organism-based; conditions: dose 12.5-25 mg/kg/day, time 15.0 day
[3] = Toxicity in BALB/c mouse xenografted with human MDA-MB-231 cells assessed as kidney damage at 25 mg/kg/day, ip administered for 15 days by H and E staining based analysis; format: organism-based; conditions: in vivo, 360 h, time 15 day
MDA-MB-231 [4] = experiment: Induction of apoptosis in human MDA-MB-231 cells assessed as early apoptotic cells at 125 nM incubated for 24 hrs by annexin V-FITC/PI staining based flow cytometry analysis (reference value: 2.03%); format: functional
MDA-MB-231 [5] = experiment: Antitumor activity against human MDA-MB-231 cells xenografted in BALB/c nude mouse assessed as reduction in RXRalpha protein expression at 25 mg/kg/day, ip administered for 15 days by immunohistochemical analysis; format: functional, organism-based; conditions: time 15.0 day
MDA-MB-231 [6] = experiment: Induction of apoptosis in human MDA-MB-231 cells assessed as increase in cleaved PARP expression at 125 nM by Western blot analysis; format: functional, cell-based; conditions: time 1-24 hrs, TDE = time-dependent effect
A549 [7] = experiment: Induction of apoptosis in human A549 cells assessed as live cells at 31.25 nM incubated for 24 hrs by annexin V-FITC/PI staining based flow cytometry analysis (reference value: 93.2%); format: functional
MDA-MB-231 [8] = experiment: Induction of cell cycle arrest in human MDA-MB-231 cells assessed as accumulation of cells at G1 phase at 125 nM incubated for 12 hrs by flow cytometry analysis (reference value: 43.2%); format: functional
A549 [9] = experiment: Induction of cell cycle arrest in RXRalpha knockout human A549 cells assessed as accumulation of cells at S phase at 125 nM incubated for 12 hrs by DAPI staining based flow cytometry analysis (reference value: 32.74%); format: functional
A549 [10] = experiment: Induction of cell cycle arrest in human A549 cells assessed as accumulation of cells at G2 phase at 31.25 nM incubated for 12 hrs by flow cytometry analysis (reference value: 8.62%); format: functional
MDA-MB-231 [11] = experiment: Effect on Nur77 protein expression in human MDA-MB-231 cells at 7.8 to 500 nM measured after 24 hrs by Western blot analysis; format: functional, cell-based; conditions: dose 7.8-500 nM
[12] = molecular target: T1, Retinoic acid receptor RXR-alpha (Homo sapiens) (UniProt P19793); experiment: Antagonist activity at RXRalpha (unknown origin) transfected in human HeLa cells assessed as inhibition of CD3254- induced receptor transactivation incubated for 24 hrs by dual luciferase reporter assay; format: cell-based; conditions: filed as antagonist, dose 12.5-100 µM
T1 sequence (whole entry): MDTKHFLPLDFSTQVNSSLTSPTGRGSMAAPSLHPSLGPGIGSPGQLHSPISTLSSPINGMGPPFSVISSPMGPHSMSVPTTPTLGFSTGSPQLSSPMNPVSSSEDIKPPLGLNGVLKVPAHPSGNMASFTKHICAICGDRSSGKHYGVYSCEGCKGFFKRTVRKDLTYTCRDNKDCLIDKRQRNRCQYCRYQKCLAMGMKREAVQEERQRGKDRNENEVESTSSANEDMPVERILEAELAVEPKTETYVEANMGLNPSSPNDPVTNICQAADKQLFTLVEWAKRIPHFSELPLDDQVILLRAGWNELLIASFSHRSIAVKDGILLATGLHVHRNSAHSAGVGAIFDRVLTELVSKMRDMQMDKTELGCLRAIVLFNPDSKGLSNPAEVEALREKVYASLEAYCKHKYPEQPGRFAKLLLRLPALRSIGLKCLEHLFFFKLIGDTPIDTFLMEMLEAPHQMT

A549 [13] = experiment: Induction of apoptosis in human A549 cells assessed as late apoptotic cells at 62.5 nM incubated for 24 hrs by annexin V-FITC/PI staining based flow cytometry analysis (reference value: 5.28%); format: functional
A549 [14] = experiment: Induction of apoptosis in human A549 cells assessed as late apoptotic cells at 31.25 nM incubated for 24 hrs by annexin V-FITC/PI staining based flow cytometry analysis (reference value: 5.28%); format: functional
A549 [15] = experiment: Antiproliferative activity against human A549 cells assessed as cell viability rate at 5 uM incubated for 72 hrs by MTT assay relative to control; format: functional
[16] = AUC (0 to infinity) in Sprague-Dawley rat at 25 mg/kg, ip measured for 48 hrs by LC-MS/MS analysis; format: ADME, organism-based; set-up: time 48 hrs, dose 25 mg/kg, route ip; conditions: in vivo
MDA-MB-231 [17] = experiment: Induction of cell cycle arrest in human MDA-MB-231 cells assessed as accumulation of cells at G2 phase at 15.625 nM incubated for 12 hrs by flow cytometry analysis (reference value: 15.91%); format: functional; conditions: 0.01562 µM
[18] = Cytotoxicity against human MCF-10A cells assessed as inhibition of cell proliferation incubated for 72 hrs by MTT assay; format: toxicity, cell-based
NCI-H460 = experiment: Antiproliferative activity against human NCI-H460 cells assessed as inhibition of cell proliferation incubated for 72 hrs by MTT assay; format: functional, cell-based; conditions: NCI-H460, 72 h
[19] = Cytotoxicity against HK-2 cells assessed as inhibition of cell proliferation incubated for 72 hrs by MTT assay; format: toxicity, cell-based; conditions: human
MDA-MB-231 [20] = experiment: Antitumor activity against human MDA-MB-231 cells xenografted in BALB/c nude mouse assessed as inhibition of tumor growth by measuring DNA damaging response at 12.5 to 25 mg/kg/day, ip administered for 15 days; format: functional, organism-based; conditions: dose 12.5-25 mg/kg/day, time 15.0 day
A549 [21] = experiment: Induction of cell cycle arrest in human A549 cells assessed as accumulation of cells at G1 phase at 62.5 nM incubated for 12 hrs by flow cytometry analysis (reference value: 59.57%); format: functional
MDA-MB-231 [22] = experiment: Downregulation of RXRalpha protein level in human MDA-MB-231 cells at 125 nM measured after 1 to 24 hrs by Western blot analysis; format: functional, cell-based; conditions: time 1-24 hrs
[23] = Toxicity in BALB/c mouse xenografted with human MDA-MB-231 cells assessed as lung damage at 25 mg/kg/day, ip administered for 15 days by H and E staining based analysis; format: organism-based; conditions: in vivo, 360 h, time 15 day
A549 [24] = experiment: Induction of apoptosis in human A549 cells assessed as early apoptotic cells at 250 nM incubated for 24 hrs by annexin V-FITC/PI staining based flow cytometry analysis (reference value: 0.78%); format: functional
HeLa = experiment: Antiproliferative activity against human HeLa cells assessed as inhibition of cell proliferation incubated for 72 hrs by MTT assay; format: functional, cell-based
MDA-MB-231 [25] = experiment: Upregulation of phosphorylated RXRalpha protein level in human MDA-MB-231 cells at 125 to 500 nM measured after 24 hrs by Western blot analysis; format: functional, cell-based; conditions: dose 125-500 nM
A549 [26] = experiment: Induction of apoptosis in human A549 cells assessed as early apoptotic cells at 31.25 nM incubated for 24 hrs by annexin V-FITC/PI staining based flow cytometry analysis (reference value: 0.78%); format: functional
A549 [27] = experiment: Antiproliferative activity against human A549 cells assessed as inhibition of cell proliferation incubated for 72 hrs by MTT assay; format: functional, cell-based; conditions: A549, 72 h

With `O=C(/C=C/c1ccccc1)Nc1cc(-c2ccnc(N3CCC(CO)CC3)c2)ccn1` the IC50 (A549 [1]) was 3360 nM, the Activity (MDA-MB-231 [2]) was “Active” and the Activity [3] was “Non-Toxic”. The Activity (MDA-MB-231 [4]) was 11.2%, the Activity (MDA-MB-231 [5]) was “Active” and the Activity (MDA-MB-231 [6]) was “Tde”. For the same compound, the Activity (A549 [7]) was 70.9%, the Activity (MDA-MB-231 [8]) was 0.07% and the Activity (A549 [9]) was 36.18%. The Activity (A549 [10]) was 8.76%, the Activity (MDA-MB-231 [11]) was “inactive” and the inhibition [12] was “Dose-Dependent Effect”. It also gave an Activity (A549 [13]) of 18.2%, an Activity (A549 [14]) of 18.9% and an Activity (A549 [15]) of 51.91%. It also gave an AUC(0-inf) [16] of 14600 ng·h/mL, an Activity (MDA-MB-231 [17]) of 15.75% and an IC50 at 72 h [18] of 18600 nM. The IC50 (NCI-H460) was 253 nM, the IC50 at 72 h [19] was 372 nM and the Activity (MDA-MB-231 [20]) was “Active”. The Activity (A549 [21]) was 59.43%, the Activity (MDA-MB-231 [22]) was “Active” and the Activity [23] was “Non-Toxic”. For the same compound, the Activity (A549 [24]) was 31.3%, the IC50 (HeLa) was 77 nM and the Activity (MDA-MB-231 [25]) was “Active”. For the same compound, the Activity (A549 [26]) was 6.28% and the IC50 (A549 [27]) was 201 nM.
